Experimental data taken from patent US20150111852A1, “1-Di(sec-butyl)-phosphinoyl-pentane (dapa-2-5) as a topical agent” (priority 2013, published 2015).

Key:
oropharynx = experiment: Sensory effects and cold discomfort of compounds given orally in ODT (general evaluation); assay type: in vivo, human; conditions: menthol at a dose of 2 mg in an ODT; icilin dose not given
Method: The correlation between a chemical's potency at the TRPM8 receptor (measured by the EC50 μM) and potency to evoke sensory events in the oropharynx is complex.
When a test compound is applied to non-keratinizng bodily surfaces (e.g., oropharyngeal surface), it is possible to characterize the resulting sensations.
The sensations are akin to rapid drinking of cold water mixed and equilibrated with ice chips. The intense cold is further accentuated if the drink is acidified, for example, with lemonade. The sensations of dull and intense cold on the surface of the oropharynx can be described as painful, uncomfortable, and aversive. The term “icy cold” is used to describe these adverse intense cold sensations.
Together, these three types of sensations—“icy cold”, coldness in the chest, and systemic coldness—is termed “cold discomfort”. […] The ideal agent must have a circumscribed site of action, and the intensity of the sensation should not cause “icy cold”, coldness in the chest, or systemic chills.

[1] = molecular target: T1, cloned hTRPM8 channel (encoded by the human TRPM8 gene, expressed in CHO cells) (Homo sapiens, UniProt Q7Z2W7); experiment: TRPM8 agonist FLIPR Fluo-8 calcium assay; assay type: cell-based
T1 construct: host or cells: CHO cells, stably transfected
Method: The in vitro effects of test compounds were evaluated on cloned hTRPM8 channel (encoded by the human TRPM8 gene, expressed in CHO cells) using a Fluo-8 calcium kit and a Fluorescence Imaging Plate Reader (FLIPR^TETRA™) instrument.
Test compounds and positive control solutions were prepared by diluting stock solutions in a HEPES-buffered physiological saline (HBPS) solution. The test compound and control formulations were loaded in polypropylene or glass-lined 384-well plates, and placed into the FLIPR instrument (Molecular Devices Corporation, Union City, Calif., USA). The test compounds were evaluated at 4 or 8 concentrations with n=4 replicates per determination. […] The test cells were Chinese Hamster Ovary (CHO) cells stably transfected with human TRPM8 cDNAs.
For the FLIPR^TETRA™ assay, cells were plated in 384-well black wall, flat clear-bottom microtiter plates (Type: BD Biocoat Poly-D-Lysine Multiwell Cell Culture Plate) at approximately 30,000 cells per well. Cells were incubated at 37° C. overnight to reach a near confluent monolayer appropriate for use in a fluorescence assay. The test procedure was to remove the growth media and to add 40 μL of HBPS containing Fluo-8 for 30 min at 37° C. 10 μL of test compound, vehicle, or control solutions in HBPS were added to each well and read for 4 min.
Concentration-response data were analyzed via the FLIPR Control software that is supplied with the FLIPR System (MDS-AT) and fitted to a Hill equation of the following form: […]
where: “Base” is the response at low concentrations of test compound; “Max” is the maximum response at high concentrations; “xhalf” is the EC50, the concentration of test compound producing half-maximal activation; and “rate” is the Hill coefficient. Nonlinear least squares fits were made assuming a simple one-to-one binding model.

[2] = test system: dorsal surface of the tongue; conditions: 6 subjects, filter paper 1×1 cm, 30 sec; cited from earlier work
[3] = molecular target: T2, hNav1.7 (sodium channels) (Homo sapiens, UniProt Q15858); experiment: Patch-clamp in transfected cells, hNav1.7; assay type: cell-based; conditions: DAPA-2-5 at 5 μM; positive control lidocaine
T2 construct: expressed in transfected cells
T2 sequence (Q15858 whole entry): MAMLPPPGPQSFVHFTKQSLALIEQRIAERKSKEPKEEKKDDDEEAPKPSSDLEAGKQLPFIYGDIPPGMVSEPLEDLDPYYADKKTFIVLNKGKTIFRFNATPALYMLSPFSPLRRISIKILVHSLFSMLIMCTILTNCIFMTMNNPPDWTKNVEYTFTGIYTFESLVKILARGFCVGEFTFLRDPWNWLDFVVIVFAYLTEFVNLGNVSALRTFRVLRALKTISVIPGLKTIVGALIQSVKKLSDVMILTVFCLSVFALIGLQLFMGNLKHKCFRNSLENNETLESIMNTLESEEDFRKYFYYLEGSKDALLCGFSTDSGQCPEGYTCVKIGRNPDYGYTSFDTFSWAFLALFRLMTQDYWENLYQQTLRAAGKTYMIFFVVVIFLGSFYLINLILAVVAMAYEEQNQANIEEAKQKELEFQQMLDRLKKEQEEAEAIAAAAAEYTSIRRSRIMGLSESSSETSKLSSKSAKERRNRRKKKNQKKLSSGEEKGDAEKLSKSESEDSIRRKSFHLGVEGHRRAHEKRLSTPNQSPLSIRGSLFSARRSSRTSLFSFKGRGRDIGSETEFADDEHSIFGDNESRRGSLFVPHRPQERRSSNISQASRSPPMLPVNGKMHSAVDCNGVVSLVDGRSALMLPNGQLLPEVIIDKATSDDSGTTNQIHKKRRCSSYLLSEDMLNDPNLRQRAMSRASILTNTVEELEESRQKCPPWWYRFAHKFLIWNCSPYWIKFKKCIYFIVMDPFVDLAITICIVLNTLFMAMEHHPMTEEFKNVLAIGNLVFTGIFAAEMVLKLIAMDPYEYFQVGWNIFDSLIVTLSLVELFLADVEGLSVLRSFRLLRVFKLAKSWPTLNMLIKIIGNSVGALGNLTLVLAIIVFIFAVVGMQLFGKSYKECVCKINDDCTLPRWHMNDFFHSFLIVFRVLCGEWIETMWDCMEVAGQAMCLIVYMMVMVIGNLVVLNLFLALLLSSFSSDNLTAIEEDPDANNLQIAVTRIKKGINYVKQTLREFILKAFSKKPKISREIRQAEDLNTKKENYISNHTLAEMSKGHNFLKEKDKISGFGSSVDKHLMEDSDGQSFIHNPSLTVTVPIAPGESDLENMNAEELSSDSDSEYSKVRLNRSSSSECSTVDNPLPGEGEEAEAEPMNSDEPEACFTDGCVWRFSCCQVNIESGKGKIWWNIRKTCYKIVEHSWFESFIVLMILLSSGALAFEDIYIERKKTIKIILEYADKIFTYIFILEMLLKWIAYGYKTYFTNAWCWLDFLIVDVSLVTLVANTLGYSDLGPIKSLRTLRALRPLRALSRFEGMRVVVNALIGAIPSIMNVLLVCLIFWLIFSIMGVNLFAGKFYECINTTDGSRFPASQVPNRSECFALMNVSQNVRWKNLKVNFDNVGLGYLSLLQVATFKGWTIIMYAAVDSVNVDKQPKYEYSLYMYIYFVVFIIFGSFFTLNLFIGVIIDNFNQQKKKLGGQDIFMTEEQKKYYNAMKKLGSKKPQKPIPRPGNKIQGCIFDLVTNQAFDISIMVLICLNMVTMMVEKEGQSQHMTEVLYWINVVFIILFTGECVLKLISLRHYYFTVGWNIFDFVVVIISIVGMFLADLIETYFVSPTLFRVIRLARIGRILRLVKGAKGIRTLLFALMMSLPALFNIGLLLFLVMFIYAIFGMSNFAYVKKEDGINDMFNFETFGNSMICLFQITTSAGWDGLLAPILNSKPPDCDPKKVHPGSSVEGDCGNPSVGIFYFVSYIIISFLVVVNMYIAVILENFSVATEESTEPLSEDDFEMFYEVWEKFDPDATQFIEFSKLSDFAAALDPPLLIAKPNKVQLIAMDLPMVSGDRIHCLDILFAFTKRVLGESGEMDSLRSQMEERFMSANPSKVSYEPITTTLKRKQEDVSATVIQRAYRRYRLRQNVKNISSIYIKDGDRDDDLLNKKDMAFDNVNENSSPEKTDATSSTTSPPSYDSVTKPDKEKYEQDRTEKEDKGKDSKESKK

T1 sequence (Q7Z2W7 whole entry): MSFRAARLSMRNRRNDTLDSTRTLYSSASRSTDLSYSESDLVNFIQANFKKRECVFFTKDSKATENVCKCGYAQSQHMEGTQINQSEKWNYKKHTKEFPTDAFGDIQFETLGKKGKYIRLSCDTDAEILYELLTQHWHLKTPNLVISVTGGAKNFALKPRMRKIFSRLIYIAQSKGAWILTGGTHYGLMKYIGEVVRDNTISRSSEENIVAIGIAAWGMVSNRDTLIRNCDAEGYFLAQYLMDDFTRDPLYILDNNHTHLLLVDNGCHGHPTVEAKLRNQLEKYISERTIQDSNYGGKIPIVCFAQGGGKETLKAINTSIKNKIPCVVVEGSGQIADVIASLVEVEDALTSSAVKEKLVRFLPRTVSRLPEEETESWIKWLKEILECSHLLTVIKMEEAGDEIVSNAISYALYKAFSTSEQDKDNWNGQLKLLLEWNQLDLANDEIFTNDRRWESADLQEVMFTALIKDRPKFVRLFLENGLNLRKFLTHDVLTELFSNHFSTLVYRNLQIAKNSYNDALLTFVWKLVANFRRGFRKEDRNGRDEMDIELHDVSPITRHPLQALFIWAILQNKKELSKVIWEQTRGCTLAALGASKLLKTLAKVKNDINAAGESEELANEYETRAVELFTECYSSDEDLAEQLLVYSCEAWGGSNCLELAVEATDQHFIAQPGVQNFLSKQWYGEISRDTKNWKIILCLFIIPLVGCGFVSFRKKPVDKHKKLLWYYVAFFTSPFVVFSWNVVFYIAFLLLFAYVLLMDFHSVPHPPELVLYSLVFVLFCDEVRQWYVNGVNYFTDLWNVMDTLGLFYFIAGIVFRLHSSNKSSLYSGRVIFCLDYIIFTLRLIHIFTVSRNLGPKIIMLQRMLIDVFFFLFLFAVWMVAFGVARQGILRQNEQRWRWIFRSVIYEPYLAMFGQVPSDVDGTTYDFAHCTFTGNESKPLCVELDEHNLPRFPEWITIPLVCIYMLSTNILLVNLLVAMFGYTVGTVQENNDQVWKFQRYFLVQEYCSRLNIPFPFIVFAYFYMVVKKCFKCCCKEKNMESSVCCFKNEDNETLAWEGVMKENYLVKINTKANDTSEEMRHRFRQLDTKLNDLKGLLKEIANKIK

For CC(C)[C@@H]1CC[C@@H](C)C[C@H]1O [Menthol, L-menthol, reference compound], the “sensory effects / side-effects in an ODT” value (oropharynx) is given as “produced chest discomfort”, the “rank in TRPM8 potency among the 21 compounds tested” value [1] is given as 16 and the “average threshold for cooling on the tongue” value [2] is given as 0.25 µg.

In the case of CCN(CC)CC(=O)Nc1c(C)cccc1C [lidocaine, reference compound], the “agonist or antagonist activity, hNav1.7” value [3] is reported as “active”.
